Results on three molecules are retold here after ChEMBL document CHEMBL1147064 (Proc Natl Acad Sci U S A, 2007).

Structures are written as SMILES.

Series [1] deals with Botulinum neurotoxin type A (Clostridium botulinum, UniProt P0DPI0).
Series [2] is described as follows: Toxicity against mouse Neuro2a cells at =>5 uM. It counts as cell-based. Particulars: n2a.

Sequence of Botulinum neurotoxin type A (P0DPI0 2-448 limits assumed): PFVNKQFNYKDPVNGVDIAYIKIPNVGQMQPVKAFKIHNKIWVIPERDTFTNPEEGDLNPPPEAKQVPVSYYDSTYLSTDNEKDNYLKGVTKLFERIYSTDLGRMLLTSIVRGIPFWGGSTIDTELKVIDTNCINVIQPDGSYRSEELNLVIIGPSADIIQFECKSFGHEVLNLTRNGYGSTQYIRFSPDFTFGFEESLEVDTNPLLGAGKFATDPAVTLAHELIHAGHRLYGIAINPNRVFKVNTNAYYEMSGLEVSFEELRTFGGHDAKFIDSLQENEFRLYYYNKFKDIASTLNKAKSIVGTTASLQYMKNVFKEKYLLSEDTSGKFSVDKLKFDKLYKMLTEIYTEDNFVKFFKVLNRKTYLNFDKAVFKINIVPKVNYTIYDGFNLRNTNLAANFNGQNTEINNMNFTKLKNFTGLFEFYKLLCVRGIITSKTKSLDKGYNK

Molecule `CCC1CN(C(=O)/C=C/c2ccccc2)CC(=O)N1Cc1ccc(C)cc1` (stereo not drawn) yielded an IC50 in series [1] of 12.5 µM.

On to `COc1ccc(CCNC(=O)CN(CC(=O)N[C@H]2C[C@@H]2c2ccccc2)C(=O)Cn2c(C(=O)N[C@H]3CCCC[C@@H]3NC(=O)c3cc4ccccc4n3CC(=O)N(CC(=O)NCCc3ccc(OC)cc3)CC(=O)N[C@@H]3C[C@H]3c3ccccc3)cc3ccccc32)cc1`, for which the half-maximal inhibitory concentration (IC50) in series [1] was determined as 7.6 µM.

As for `O=C(/C=C/c1ccc(Cl)cc1Cl)NO` [CINNAMIC ACID HYDROXAMATE], the Activity entry in series [2] is “Toxic”.
